Laboratory results from ChEMBL document CHEMBL1155690, “Antiyeast steroidal saponins from Yucca schidigera (Mohave yucca), a new anti-food-deteriorating agent” (2000).
≈ marks a conversion by molar mass, not a printed value. Values belong to the molecule of their own block, whether it stands above or below them.

How the values were obtained:
Assay type in all cases: functional
Yamadazyma nakazawae = test: Antimicrobial activity against Pichia nakazawae HUT 1688 after 48 hrs by agar dilution method
Debaryomyces hansenii = test: Antimicrobial activity against Debaryomyces hansenii IFO 18 after 48 hrs by agar dilution method; details: IFO 18, 48 h
Hanseniaspora uvarum = test: Antimicrobial activity against Kloeckera apiculata IFO 154 after 48 hrs by agar dilution method; details: IFO 154, 48 h
Saccharomyces cerevisiae = test: Antimicrobial activity against Saccharomyces cerevisiae IFO 203 after 48 hrs by agar dilution method; details: IFO 203, 48 h
Wickerhamomyces anomalus = test: Antimicrobial activity against Hansenula anomala HUT 7083 after 48 hrs by agar dilution method
Candida albicans = test: Antimicrobial activity against Candida albicans TIMM 0134 after 48 hrs by agar dilution method

Structure (SMILES): CC1CC[C@@]2(OC1)O[C@H]1C[C@H]3[C@@H]4CC[C@@H]5C[C@@H](O[C@@H]6O[C@H](CO)[C@H](O)[C@H](O[C@@H]7OC[C@@H](O)[C@H](O)[C@H]7O)[C@H]6O[C@@H]6O[C@H](CO)[C@@H](O)[C@H](O)[C@H]6O)[C@@H](O)C[C@]5(C)[C@H]4CC[C@]3(C)[C@H]1[C@@H]2C (some centres undefined)
MIC (Yamadazyma nakazawae): > 100 µg/mL | MIC (Debaryomyces hansenii): 100 µg/mL (≈ 112 µM) | MIC (Hanseniaspora uvarum): > 100 µg/mL | MIC (Saccharomyces cerevisiae): 100 µg/mL (≈ 112 µM) | MIC (Wickerhamomyces anomalus): > 100 µg/mL | MIC (Candida albicans): > 100 µg/mL

Structure (SMILES): C[C@H]1CC[C@@]2(OC1)O[C@H]1C[C@H]3[C@@H]4CC[C@@H]5C[C@@H](O[C@@H]6O[C@H](CO)[C@H](O)[C@H](O[C@@H]7O[C@H](CO)[C@@H](O)[C@H](O)[C@H]7O)[C@H]6O[C@@H]6O[C@H](CO)[C@@H](O)[C@H](O)[C@H]6O)CC[C@]5(C)[C@H]4CC[C@]3(C)[C@H]1[C@@H]2C
MIC (Yamadazyma nakazawae): 6.25 µg/mL (≈ 6.92 µM) | MIC (Debaryomyces hansenii): 6.25 µg/mL (≈ 6.92 µM) | MIC (Hanseniaspora uvarum): 50 µg/mL (≈ 55.4 µM) | MIC (Saccharomyces cerevisiae): 12.5 µg/mL (≈ 13.8 µM) | MIC (Wickerhamomyces anomalus): 3.13 µg/mL (≈ 3.47 µM) | MIC (Candida albicans): 25 µg/mL (≈ 27.7 µM)

Structure (SMILES): C=C1CC[C@@]2(OC1)O[C@H]1C[C@H]3[C@@H]4CC[C@@H]5C[C@@H](O[C@@H]6O[C@H](CO)[C@@H](O)[C@H](O[C@@H]7OC[C@@H](O)[C@H](O)[C@H]7O)[C@H]6O[C@@H]6O[C@H](CO)[C@@H](O)[C@H](O)[C@H]6O)CC[C@]5(C)[C@H]4CC(=O)[C@]3(C)[C@H]1[C@@H]2C
MIC (Yamadazyma nakazawae): > 100 µg/mL | MIC (Debaryomyces hansenii): > 100 µg/mL | MIC (Hanseniaspora uvarum): > 100 µg/mL | MIC (Saccharomyces cerevisiae): > 100 µg/mL | MIC (Wickerhamomyces anomalus): > 100 µg/mL | MIC (Candida albicans): > 100 µg/mL

Structure (SMILES): C=C1CC[C@@]2(OC1)O[C@H]1C[C@H]3[C@@H]4CC[C@@H]5C[C@@H](O[C@@H]6O[C@H](CO)[C@H](O)[C@H](O)[C@H]6O[C@@H]6O[C@H](CO)[C@@H](O)[C@H](O)[C@H]6O)[C@@H](O)C[C@]5(C)[C@H]4CC[C@]3(C)[C@H]1[C@@H]2C
MIC (Yamadazyma nakazawae): > 100 µg/mL | MIC (Debaryomyces hansenii): > 100 µg/mL | MIC (Hanseniaspora uvarum): > 100 µg/mL | MIC (Saccharomyces cerevisiae): > 100 µg/mL | MIC (Wickerhamomyces anomalus): > 100 µg/mL | MIC (Candida albicans): > 100 µg/mL

Structure (SMILES): C=C1CC[C@@]2(OC1)O[C@H]1C[C@H]3[C@@H]4CC[C@@H]5C[C@@H](O[C@@H]6O[C@H](CO)[C@H](O)[C@H](O[C@@H]7OC[C@@H](O)[C@H](O)[C@H]7O)[C@H]6O[C@@H]6O[C@H](CO)[C@@H](O)[C@H](O)[C@H]6O)[C@@H](O)C[C@]5(C)[C@H]4CC[C@]3(C)[C@H]1[C@@H]2C
MIC (Yamadazyma nakazawae): 100 µg/mL (≈ 113 µM) | MIC (Debaryomyces hansenii): > 100 µg/mL | MIC (Hanseniaspora uvarum): > 100 µg/mL | MIC (Saccharomyces cerevisiae): 100 µg/mL (≈ 113 µM) | MIC (Wickerhamomyces anomalus): > 100 µg/mL | MIC (Candida albicans): 100 µg/mL (≈ 113 µM)

Structure (SMILES): C[C@H]1CC[C@@]2(OC1)O[C@H]1C[C@H]3[C@@H]4CC[C@@H]5C[C@@H](O[C@@H]6O[C@H](CO)[C@H](O)[C@H](O)[C@H]6O[C@@H]6O[C@H](CO)[C@@H](O)[C@H](O)[C@H]6O)[C@@H](O)C[C@]5(C)[C@H]4CC[C@]3(C)[C@H]1[C@@H]2C
MIC (Yamadazyma nakazawae): 100 µg/mL (≈ 132 µM) | MIC (Debaryomyces hansenii): > 100 µg/mL | MIC (Hanseniaspora uvarum): > 100 µg/mL | MIC (Saccharomyces cerevisiae): > 100 µg/mL | MIC (Wickerhamomyces anomalus): > 100 µg/mL | MIC (Candida albicans): > 100 µg/mL

Structure (SMILES): CC1CC[C@@]2(OC1)O[C@H]1C[C@H]3[C@@H]4CC[C@@H]5C[C@@H](O[C@@H]6O[C@H](CO)[C@@H](O)[C@H](O[C@@H]7OC[C@@H](O)[C@H](O)[C@H]7O)[C@H]6O[C@@H]6O[C@H](CO)[C@@H](O)[C@H](O)[C@H]6O)CC[C@]5(C)[C@H]4CC[C@]3(C)[C@H]1[C@@H]2C (mixture of isomers)
MIC (Yamadazyma nakazawae): 3.13 µg/mL | MIC (Debaryomyces hansenii): 6.25 µg/mL | MIC (Hanseniaspora uvarum): > 100 µg/mL | MIC (Saccharomyces cerevisiae): 6.25 µg/mL | MIC (Wickerhamomyces anomalus): 3.13 µg/mL | MIC (Candida albicans): 50 µg/mL

Structure (SMILES): CC1CC[C@@]2(OC1)O[C@H]1C[C@H]3[C@@H]4CC[C@@H]5C[C@@H](O[C@@H]6O[C@H](CO)[C@@H](O)[C@H](O[C@@H]7OC[C@@H](O)[C@H](O)[C@H]7O)[C@H]6O[C@@H]6O[C@H](CO)[C@@H](O)[C@H](O)[C@H]6O)CC[C@]5(C)[C@H]4CC(=O)[C@]3(C)[C@H]1[C@@H]2C (mixture of isomers)
MIC (Yamadazyma nakazawae): > 100 µg/mL | MIC (Debaryomyces hansenii): > 100 µg/mL | MIC (Hanseniaspora uvarum): > 100 µg/mL | MIC (Saccharomyces cerevisiae): 100 µg/mL | MIC (Wickerhamomyces anomalus): 100 µg/mL | MIC (Candida albicans): > 100 µg/mL

Structure (SMILES): CC1CC[C@@]2(OC1)O[C@H]1C[C@H]3[C@@H]4CC[C@@H]5C[C@@H](O[C@@H]6O[C@H](CO)[C@H](O)[C@H](O[C@@H]7OC[C@@H](O)[C@H](O)[C@H]7O)[C@H]6O[C@@H]6O[C@H](CO)[C@@H](O)[C@H](O)[C@H]6O)CC[C@]5(C)[C@H]4CC[C@]3(C)[C@H]1[C@@H]2C (mixture of isomers)
MIC (Yamadazyma nakazawae): 12.5 µg/mL | MIC (Debaryomyces hansenii): 50 µg/mL | MIC (Hanseniaspora uvarum): > 100 µg/mL | MIC (Saccharomyces cerevisiae): 25 µg/mL | MIC (Wickerhamomyces anomalus): 3.13 µg/mL | MIC (Candida albicans): > 100 µg/mL

Continued, values first:

MIC (Yamadazyma nakazawae): 3.13 µg/mL (≈ 3.47 µM) | MIC (Debaryomyces hansenii): 6.25 µg/mL (≈ 6.92 µM) | MIC (Hanseniaspora uvarum): > 100 µg/mL | MIC (Saccharomyces cerevisiae): 6.25 µg/mL (≈ 6.92 µM) | MIC (Wickerhamomyces anomalus): 1.56 µg/mL (≈ 1.73 µM) | MIC (Candida albicans): > 100 µg/mL
Structure (SMILES): C[C@H]1CC[C@@]2(OC1)O[C@H]1C[C@H]3[C@@H]4CC[C@@H]5C[C@@H](O[C@@H]6O[C@H](CO)[C@@H](O)[C@H](O[C@@H]7O[C@H](CO)[C@@H](O)[C@H](O)[C@H]7O)[C@H]6O[C@@H]6O[C@H](CO)[C@@H](O)[C@H](O)[C@H]6O)CC[C@]5(C)[C@H]4CC[C@]3(C)[C@H]1[C@@H]2C

MIC (Yamadazyma nakazawae): 3.13 µg/mL (≈ 3.47 µM) | MIC (Debaryomyces hansenii): > 100 µg/mL | MIC (Hanseniaspora uvarum): > 100 µg/mL | MIC (Saccharomyces cerevisiae): 12.5 µg/mL (≈ 13.9 µM) | MIC (Wickerhamomyces anomalus): 6.13 µg/mL (≈ 6.8 µM) | MIC (Candida albicans): 12.5 µg/mL (≈ 13.9 µM)
Structure (SMILES): C=C1CC[C@@]2(OC1)O[C@H]1C[C@H]3[C@@H]4CC[C@@H]5C[C@@H](O[C@@H]6O[C@H](CO)[C@@H](O)[C@H](O[C@@H]7O[C@H](CO)[C@@H](O)[C@H](O)[C@H]7O)[C@H]6O[C@@H]6O[C@H](CO)[C@@H](O)[C@H](O)[C@H]6O)CC[C@]5(C)[C@H]4CC[C@]3(C)[C@H]1[C@@H]2C

MIC (Yamadazyma nakazawae): 3.13 µg/mL (≈ 3.59 µM) | MIC (Debaryomyces hansenii): > 100 µg/mL | MIC (Hanseniaspora uvarum): > 100 µg/mL | MIC (Saccharomyces cerevisiae): 12.5 µg/mL (≈ 14.4 µM) | MIC (Wickerhamomyces anomalus): 3.13 µg/mL (≈ 3.59 µM) | MIC (Candida albicans): 12.5 µg/mL (≈ 14.4 µM)
Structure (SMILES): C=C1CC[C@@]2(OC1)O[C@H]1C[C@H]3[C@@H]4CC[C@@H]5C[C@@H](O[C@@H]6O[C@H](CO)[C@H](O)[C@H](O[C@@H]7OC[C@@H](O)[C@H](O)[C@H]7O)[C@H]6O[C@@H]6O[C@H](CO)[C@@H](O)[C@H](O)[C@H]6O)CC[C@]5(C)[C@H]4CC[C@]3(C)[C@H]1[C@@H]2C

MIC (Yamadazyma nakazawae): 3.13 µg/mL (≈ 3.59 µM) | MIC (Debaryomyces hansenii): 6.25 µg/mL (≈ 7.18 µM) | MIC (Hanseniaspora uvarum): 12.5 µg/mL (≈ 14.4 µM) | MIC (Saccharomyces cerevisiae): 3.13 µg/mL (≈ 3.59 µM) | MIC (Wickerhamomyces anomalus): 3.13 µg/mL (≈ 3.59 µM) | MIC (Candida albicans): 6.25 µg/mL (≈ 7.18 µM)
Structure (SMILES): C=C1CC[C@@]2(OC1)O[C@H]1C[C@H]3[C@@H]4CC[C@@H]5C[C@@H](O[C@@H]6O[C@H](CO)[C@@H](O)[C@H](O[C@@H]7OC[C@@H](O)[C@H](O)[C@H]7O)[C@H]6O[C@@H]6O[C@H](CO)[C@@H](O)[C@H](O)[C@H]6O)CC[C@]5(C)[C@H]4CC[C@]3(C)[C@H]1[C@@H]2C

MIC (Yamadazyma nakazawae): 3.13 µg/mL (≈ 4.22 µM) | MIC (Debaryomyces hansenii): > 100 µg/mL | MIC (Hanseniaspora uvarum): > 100 µg/mL | MIC (Saccharomyces cerevisiae): 12.5 µg/mL (≈ 16.9 µM) | MIC (Wickerhamomyces anomalus): 6.25 µg/mL (≈ 8.44 µM) | MIC (Candida albicans): 12.5 µg/mL (≈ 16.9 µM)
Structure (SMILES): C[C@H]1CC[C@@]2(OC1)O[C@H]1C[C@H]3[C@@H]4CC[C@@H]5C[C@@H](O[C@@H]6O[C@H](CO)[C@@H](O)[C@H](O)[C@H]6O[C@@H]6O[C@H](CO)[C@@H](O)[C@H](O)[C@H]6O)CC[C@]5(C)[C@H]4CC[C@]3(C)[C@H]1[C@@H]2C
